Data: the NIST ThermoML archive (doi:10.1021/je060271a)

Conditions: 323.15 K, Liquid, Vibrating tube method

CCCCCC(=O)OCC(COC(=O)CCCCC)(COC(=O)CCCCC)COC(=O)CCCCC [pentaerythritol tetrahexanoate]
Conditions	mass density [kg/m3]
616.8 kPa	973.1
618.6 kPa	973.1
620.6 kPa	973.1
623.1 kPa	973.3
625.3 kPa	973.2
627.3 kPa	973.1
629.2 kPa	973.2
631.2 kPa	973.1
633 kPa	973.1
634.7 kPa	973.1
637.3 kPa	973.1
639.4 kPa	973.1
641.7 kPa	973
643.9 kPa	973
659.4 kPa	973.1
662 kPa	973.2
664.3 kPa	973.2
666.7 kPa	973.1
668.8 kPa	973.2
671.2 kPa	973.2
674 kPa	973.1
675.9 kPa	973.1
678.5 kPa	973.1
681.8 kPa	973.2
684.1 kPa	973.2
699.5 kPa	973.1
702.1 kPa	973.1
704.4 kPa	973.1
707.2 kPa	973.2
709.1 kPa	973.2
712 kPa	973.1
741.4 kPa	973.1
744 kPa	973.3
746.6 kPa	973.1
749.6 kPa	973.2
752.5 kPa	973.1
755.1 kPa	973.3
757.9 kPa	973.2
760.3 kPa	973.2
765.9 kPa	973.2
768.5 kPa	973.2
772.1 kPa	973.2
774.9 kPa	973.1
777.5 kPa	973.3
780 kPa	973.2
783.1 kPa	973.2
785.3 kPa	973.1
788.3 kPa	973.3
791.4 kPa	973.2
794.4 kPa	973.2
796 kPa	973.2
798.4 kPa	973.3
815.2 kPa	973.3
817.7 kPa	973.3
821 kPa	973.3
824.1 kPa	973.4
827.1 kPa	973.3
830.2 kPa	973.2
833.5 kPa	973.3
836.8 kPa	973.2
839.5 kPa	973.3
842.8 kPa	973.2
845.5 kPa	973.2
849.1 kPa	973.3
851.9 kPa	973.2
855.5 kPa	973.3
871.5 kPa	973.2
875.2 kPa	973.2
877.8 kPa	973.2
880.9 kPa	973.3
884.5 kPa	973.3
887.3 kPa	973.2
890.8 kPa	973.2
894.6 kPa	973.2
897.6 kPa	973.2
900.3 kPa	973.2
904 kPa	973.3
906.8 kPa	973.3
910.8 kPa	973.3
913.5 kPa	973.3
920.1 kPa	973.2
926.9 kPa	973.3
930.6 kPa	973.3
933.3 kPa	973.3
936.1 kPa	973.2
940 kPa	973.3
942.9 kPa	973.4
947.1 kPa	973.3
950.7 kPa	973.3
953.5 kPa	973.3
957 kPa	973.4
960.8 kPa	973.3
963.6 kPa	973.4
968.1 kPa	973.2
971.9 kPa	973.2
975.6 kPa	973.4
978.9 kPa	973.4
983 kPa	973.3
987 kPa	973.3
991 kPa	973.4
995 kPa	973.4
999.9 kPa	973.3
1003.3 kPa	973.4
1007 kPa	973.4
1011.7 kPa	973.4
1016 kPa	973.4
1062.4 kPa	973.4
1065.9 kPa	973.3
1069.5 kPa	973.4
1073.9 kPa	973.3
1077.3 kPa	973.4
1082 kPa	973.5
1085.7 kPa	973.4
1090.4 kPa	973.5
1094.2 kPa	973.5
1099 kPa	973.5
1103 kPa	973.5
1128.6 kPa	973.4
1132.2 kPa	973.4
1137.1 kPa	973.4
1140.7 kPa	973.5
1145.6 kPa	973.5
1149.6 kPa	973.5
1154.3 kPa	973.5
1159 kPa	973.5
1163.8 kPa	973.5
1243.7 kPa	973.6
1248 kPa	973.6
1253.4 kPa	973.5
1258.3 kPa	973.4
1263.5 kPa	973.5
1269.2 kPa	973.5
1273.9 kPa	973.7
1278.6 kPa	973.5
1284.5 kPa	973.6
1289.2 kPa	973.6
1294.7 kPa	973.5
1299.6 kPa	973.6
1305.5 kPa	973.5
1310 kPa	973.5
1315.4 kPa	973.5
1319.9 kPa	973.5
1325.8 kPa	973.5
1331.7 kPa	973.6
1411.8 kPa	973.6
